{"source": "patent US20250177555A1", "about": "(priority 2022, published 2025)", "tested_on": "293T cells", "assay_type": "cell-based"}
{"compound": "C=C(C)[C@@H]1CCC(C)=C[C@H]1c1c(O)cc(CCCCC)cc1O", "note": "[CBD, cannabidiol]", "values": [{"measurement": "production of gectosomes encapsulated Nluc cargo", "value": "induces an elevated production"}]}
